Patent publication US11999720B2, “Pyrazolylacylpyrazoline compounds and method for treating pain” (THE TRUSTEES OF INDIANA UNIVERSITY, priority 2018, dated 2024)

How the values were obtained:
CaVα1CaVβ3 interaction = molecular target: T1, CaVα1CaVβ3 interaction (Rattus norvegicus, UniProt P54287); test: fluorescence polarization assay, inhibition constant; assay type: binding; conditions: fluorescence polarization assay
T1 construct: made in house; host or cells: E. coli BL21(DE3)
Protocol: (§1) The plasmid of pET28a-CaV2.2β3 subunit was transformed into competent E. Coli BL21(DE3) strain. Culture was grown in LB medium at 37° C. to an OD600 of approximately 0.6 and then induced with 0.5 mM IPTG at 16° C. for 16 h. Cells were collected by centrifugation and lysed by microfluidizer in lysis buffer (phosphate buffer, pH 7.6, 2 mM DTT). The His-CaVβ3 protein was purified at 4° C. using Ni-IMAC chromatography (His-Trap HP, GE Healthcare) and eluted with 500 mM imidazole in lysis buffer with a gradient method. After the fractions consisted of His-CaVβ3 was combined and concentrated, the protein was further purified using size exclusion chromatography (Superdex 200 pg, GE Healthcare) in PBS with 2 mM DTT.
(§2) Compound 6 forms a salt bridge interaction with Arg-307 through a benzoic acid moiety. […] Arg-307 was mutated to alanine.

CaVβ3 = molecular target: T2, CaVβ3 (Rattus norvegicus, UniProt P54287); test: label-free microscale thermophoresis (MST), direct binding; conditions: direct binding to CaVβ3, read-out: dissociation constant (Kd)
T2 construct: made in house; host or cells: E. coli BL21(DE3)
T2 sequence (P54287 whole entry): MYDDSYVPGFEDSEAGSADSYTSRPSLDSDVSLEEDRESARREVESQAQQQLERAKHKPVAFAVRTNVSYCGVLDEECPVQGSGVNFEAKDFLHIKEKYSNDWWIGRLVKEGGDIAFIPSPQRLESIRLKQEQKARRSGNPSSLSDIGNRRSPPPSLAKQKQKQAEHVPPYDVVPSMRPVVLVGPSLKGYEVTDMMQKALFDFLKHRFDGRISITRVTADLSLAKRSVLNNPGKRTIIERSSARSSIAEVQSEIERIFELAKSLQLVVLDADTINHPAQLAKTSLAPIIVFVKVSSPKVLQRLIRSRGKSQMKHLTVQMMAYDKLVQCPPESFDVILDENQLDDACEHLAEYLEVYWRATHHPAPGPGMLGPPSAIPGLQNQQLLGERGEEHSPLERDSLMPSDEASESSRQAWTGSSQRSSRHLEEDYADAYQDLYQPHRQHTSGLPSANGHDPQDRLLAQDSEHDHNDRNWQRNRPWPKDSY
Protocol: Curve fitting analysis led to a dissociation constant of 3.6±1.1 μM.
as §1
Direct binding of compound 6 to CaVβ3 was confirmed with label-free microscale thermophoresis (MST).

CaVβ3 Arg-307-Ala = molecular target: T3, CaVβ3 Arg-307-Ala (Rattus norvegicus, UniProt P54287, R307A); test: site-directed mutagenesis: displacement of fluorescently-labeled CaVα1-AID bound to mutated CaVβ3; assay type: binding
T3 construct: His; made in house
T3 sequence (P54287 whole entry R307A): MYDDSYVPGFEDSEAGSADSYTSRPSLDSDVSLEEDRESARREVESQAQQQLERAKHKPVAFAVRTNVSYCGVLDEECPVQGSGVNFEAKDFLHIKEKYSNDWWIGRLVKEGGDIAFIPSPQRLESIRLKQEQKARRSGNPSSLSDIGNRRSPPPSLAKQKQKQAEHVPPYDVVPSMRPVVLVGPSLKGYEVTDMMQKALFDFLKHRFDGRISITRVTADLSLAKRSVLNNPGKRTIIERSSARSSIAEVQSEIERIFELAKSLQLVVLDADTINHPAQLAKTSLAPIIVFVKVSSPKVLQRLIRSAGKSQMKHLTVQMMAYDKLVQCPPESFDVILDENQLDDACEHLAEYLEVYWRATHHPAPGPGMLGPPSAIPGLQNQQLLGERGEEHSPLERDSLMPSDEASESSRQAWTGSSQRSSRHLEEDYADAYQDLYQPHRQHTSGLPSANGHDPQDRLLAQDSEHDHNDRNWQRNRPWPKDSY
Source text: as §2

[1] = tested on: T4, CaV2.2 channels in HEK-CaV2.2 cells (Rattus norvegicus); test: whole cell patch-clamp, CaV2.2 currents in HEK-CaV2.2 cells; assay type: cell-based
T4 construct: expressed in transfected cells
T4 sequence (P54287 whole entry): as the sequence (P54287 whole entry) above
Protocol: The G-V curves are shown.
HEK-CaV2.2 cells were pretreated with various concentrations of compound 14 for 48 hours. CaV2.2 currents were acquired during 20-ms depolarizing pulses, and the current densities were calculated as a ratio of the peak current amplitude and each cell capacitance (0.1 μM, n=6; 1 μM, n=7; 10 μM, n=8; 50 μM, n=12). The line is the fit of the data to the four-parameter logistic function.
EK-CaV2.2 cells were pretreated with the indicated compounds for 48 hours. *** corresponds to […].
FIGS. 8 and 9 show the effects of 2 and 14 on the voltage dependence of activation of CaV2.2 channels in HEK-CaV2.2 cells pretreated with the vehicle or the indicated compounds for 48 hours. […] The gray vertical lines are the error bars (S.E.M.).
FIGS. 10 and 11 show acute effects of DMSO and 14 on the voltage dependence of activation of CaV2.2 channels in HEK-CaV2.2 cells. […] The gray vertical lines are the error bars (S.E.M.). “ns”—stands for not significant.
(§3) The whole cell patch-clamp technique was used to record CaV2.2 currents in HEK-CaV2.2 cells and rat DRG neurons. HEK293 cells that stably expressed rat N-type CaV2.2α1B, rat CaVβ3, and rat […] were utilized. Cells were grown in Dulbecco's modified Eagle's medium (DMEM) supplemented with 10% FBS, 50 units penicillin, 50 μg/ml streptomycin, 5 μg/ml blasticidin, 5 μg/ml hydromycin and 25 μg/ml zeozin at 37° C. in a humidified atmosphere of 95% air and 5% CO2. For patch clamp experiments, HEK-CaV2.2 cells were plated on glass coverslips and were cultured for 24-48 h. All animal procedures were performed in accordance to the NIH guide and were approved by the Indiana University School of Medicine Institutional Animal Care and Use Committee. Young adult Sprague Dawley rats were anesthetized (3% isoflurane) and then decapitated. The spinal column was removed, cut open, and dorsal root ganglia were harvested from the Lumbar L4-L6 vertebral levels. The ganglia were incubated in DMEM containing collagenase (1 mg/ml, Worthington: LS04194) and protease (1 mg/ml, Worthington: LS02104) for 30-60 minutes, and DRG neurons were dissociated by triturating in DMEM supplemented with 10% FBS. The isolated DRG neurons were plated on glass coverslips coated with growth factor reduced Matrigel (Thermo Fisher Scientific, Waltham, MA) and were cultured in Eagle's minimum essential medium (Invitrogen, CA) supplemented with 0.2% BSA and 20 ng/ml NGF-2.5S (BD Biosciences, Bedford, MA) at 37° C. in a water-jacketed 5% CO2 incubator overnight for the patch-clamp experiments.

[2] = molecular target: T5, CaV2.2 currents in rat DRG neurons (Rattus norvegicus, UniProt Q02294); test: whole cell patch-clamp, CaV2.2 currents in rat DRG neurons; assay type: cell-based; conditions: 50 μM acute
T5 construct: from tissue; host or cells: dissociated dorsal root ganglion neurons (L4-L6) of young adult Sprague Dawley rats
T5 sequence (P54287 whole entry partner): as the sequence (P54287 whole entry) above
T5 sequence (Q02294 whole entry): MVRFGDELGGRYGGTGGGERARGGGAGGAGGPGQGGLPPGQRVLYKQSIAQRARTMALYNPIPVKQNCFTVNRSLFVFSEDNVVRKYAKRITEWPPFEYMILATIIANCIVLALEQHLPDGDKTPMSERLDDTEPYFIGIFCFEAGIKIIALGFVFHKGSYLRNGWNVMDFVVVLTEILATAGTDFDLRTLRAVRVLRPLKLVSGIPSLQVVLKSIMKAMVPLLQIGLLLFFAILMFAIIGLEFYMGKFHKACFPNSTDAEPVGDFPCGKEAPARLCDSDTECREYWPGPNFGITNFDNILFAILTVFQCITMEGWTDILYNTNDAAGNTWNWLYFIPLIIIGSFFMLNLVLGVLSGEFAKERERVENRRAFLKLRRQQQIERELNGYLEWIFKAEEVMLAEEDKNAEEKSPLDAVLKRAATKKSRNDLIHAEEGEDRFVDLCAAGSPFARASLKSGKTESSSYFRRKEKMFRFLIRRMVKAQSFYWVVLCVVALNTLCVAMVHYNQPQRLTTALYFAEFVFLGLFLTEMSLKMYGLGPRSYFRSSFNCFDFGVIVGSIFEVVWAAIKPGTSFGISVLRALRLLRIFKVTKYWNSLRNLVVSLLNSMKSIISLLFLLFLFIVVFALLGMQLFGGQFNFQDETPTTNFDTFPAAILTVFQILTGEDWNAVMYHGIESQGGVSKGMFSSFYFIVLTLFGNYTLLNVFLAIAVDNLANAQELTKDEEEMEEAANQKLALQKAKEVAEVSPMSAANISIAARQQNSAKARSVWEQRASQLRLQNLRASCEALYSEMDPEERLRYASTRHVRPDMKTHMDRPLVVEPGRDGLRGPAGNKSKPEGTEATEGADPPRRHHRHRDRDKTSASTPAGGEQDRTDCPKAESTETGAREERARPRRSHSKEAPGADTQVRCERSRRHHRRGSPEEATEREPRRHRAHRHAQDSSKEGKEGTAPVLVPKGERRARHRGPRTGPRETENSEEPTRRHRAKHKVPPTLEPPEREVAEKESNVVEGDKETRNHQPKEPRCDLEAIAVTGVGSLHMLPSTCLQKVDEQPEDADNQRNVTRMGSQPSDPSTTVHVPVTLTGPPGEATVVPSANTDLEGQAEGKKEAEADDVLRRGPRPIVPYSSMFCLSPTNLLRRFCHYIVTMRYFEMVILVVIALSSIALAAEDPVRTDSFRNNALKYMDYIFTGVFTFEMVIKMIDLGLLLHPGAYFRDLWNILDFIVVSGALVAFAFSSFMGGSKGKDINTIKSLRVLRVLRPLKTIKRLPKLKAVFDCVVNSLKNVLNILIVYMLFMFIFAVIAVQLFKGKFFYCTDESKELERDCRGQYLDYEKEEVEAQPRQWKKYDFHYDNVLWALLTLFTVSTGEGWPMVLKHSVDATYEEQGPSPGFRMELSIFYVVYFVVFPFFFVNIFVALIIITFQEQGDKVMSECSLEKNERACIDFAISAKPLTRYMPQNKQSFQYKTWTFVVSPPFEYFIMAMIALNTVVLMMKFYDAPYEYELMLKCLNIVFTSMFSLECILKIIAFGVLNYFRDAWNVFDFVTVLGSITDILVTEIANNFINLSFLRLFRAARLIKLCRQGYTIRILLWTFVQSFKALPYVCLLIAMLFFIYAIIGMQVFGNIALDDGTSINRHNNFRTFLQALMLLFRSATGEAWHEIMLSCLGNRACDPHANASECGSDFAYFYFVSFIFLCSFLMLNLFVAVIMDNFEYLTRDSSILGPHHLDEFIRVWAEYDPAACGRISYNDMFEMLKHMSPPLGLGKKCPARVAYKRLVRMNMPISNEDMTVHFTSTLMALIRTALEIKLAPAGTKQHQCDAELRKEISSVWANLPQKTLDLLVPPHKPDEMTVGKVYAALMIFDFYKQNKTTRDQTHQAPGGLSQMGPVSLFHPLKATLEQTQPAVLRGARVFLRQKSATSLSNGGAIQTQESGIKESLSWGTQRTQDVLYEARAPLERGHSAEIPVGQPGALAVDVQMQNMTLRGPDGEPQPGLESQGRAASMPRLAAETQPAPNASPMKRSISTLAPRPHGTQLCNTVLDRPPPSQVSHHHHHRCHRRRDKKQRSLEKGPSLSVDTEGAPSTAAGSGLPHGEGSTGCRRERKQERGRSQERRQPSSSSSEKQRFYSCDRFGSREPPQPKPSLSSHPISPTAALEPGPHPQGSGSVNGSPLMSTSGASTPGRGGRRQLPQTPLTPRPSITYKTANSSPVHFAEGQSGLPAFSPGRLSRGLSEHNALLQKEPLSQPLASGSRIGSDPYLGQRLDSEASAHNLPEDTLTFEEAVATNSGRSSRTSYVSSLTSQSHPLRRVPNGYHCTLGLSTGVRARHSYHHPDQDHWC
Protocol: as §3, with “The isolated DRG neurons were plated on glass coverslips coated with growth factor reduced Matrigel (Thermo Fisher Scientific, Waltham, MA) and were cultured in Eagle's minimum essential medium (Invitrogen, CA) supplemented with 0.2% BSA and 20 ng/ml NGF-2.5S (BD Biosciences, Bedford, MA) at 37° C. in a water-jacketed 5% CO2 incubator overnight for the patch-clamp experiments.” left out

[3] = tested on: acute thermal nociception in the rat; test: acute thermal nociception in the rat (Hargreaves' plantar test); assay type: in vivo; conditions: for paw withdrawal latency (PWL), analgesic effect: rats, n=6 per group, FIG. 12
Protocol: Pathogen-free, adult, female Sprague Dawley (weight at testing 150-200 g; Harlan-Sprague-Dawley, Indianapolis, IN) were housed in a climate-controlled room on a 12-hour light/dark cycle and were allowed to have food and water ad libitum. All procedures were approved by the Indiana University Animal Care and Use Committee and conformed to the guidelines of the National Institutes of Health (publication no. 80-23, 1966) for the use of laboratory animals. All behavioral experiments were conducted by experimenters blinded to the treatment conditions and compound identity. The experiments were replicated a minimum of 2 times with independent cohorts of animals. For in vivo studies, the inventive compounds were freshly prepared saline (0.9%) on the day of the experiment. […] Louis, MO) was freshly prepared on the day of the experiment in saline. All drugs were dissolved in 1 mL solution and administered by intraperitoneal (i.p.) injections 1 h prior to all behavioral assays. To evaluate the PWT to thermal stimulation, the Hargreaves' plantar test apparatus (Ugo Basile, Varese, Italy) was used. Measurements of the withdrawal latency of the paw began after the rats were habituated to the testing environment (IR setting=70). The measurements were repeated four times, at 5 min intervals and the initial pair of measurements was not used. The averages of the three remaining pairs of measurements taken were employed as data. A model of behavioral sensitivity using thermal stimulus was used to determine the acute analgesic properties of the compounds of the present invention.

[4] = tested on: tibial nerve injury (TNI) model of neuropathic pain; test: tibial nerve injury (TNI) model of neuropathic pain, von Frey withdrawal threshold; assay type: in vivo, rat; conditions: for withdrawal threshold to von Frey stimulation: 1 h, 28 days after TNI, before dosing 33.1±5.9, pre-surgery 68.7±3.7
Protocol: Pathogen-free, adult, female Sprague Dawley (weight at testing 150-200 g; Harlan-Sprague-Dawley, Indianapolis, IN) were housed in a climate-controlled room on a 12-hour light/dark cycle and were allowed to have food and water ad libitum. All procedures were approved by the Indiana University Animal Care and Use Committee and conformed to the guidelines of the National Institutes of Health (publication no. 80-23, 1966) for the use of laboratory animals. All behavioral experiments were conducted by experimenters blinded to the treatment conditions and compound identity. The experiments were replicated a minimum of 2 times with independent cohorts of animals.
For in vivo studies, the inventive compounds were freshly prepared saline (0.9%) on the day of the experiment. Morphine sulfate salt (Sigma-Aldrich, St. Louis, MO) was freshly prepared on the day of the experiment in saline. […]
The inventive compounds were assessed with the tibial nerve injury (TNI) model of neuropathic pain 28 days after surgery. Using isoflurane anesthesia (4% induction and 2% maintenance), the right sciatic nerve was isolated under aseptic surgical conditions by blunt dissection of the femoral biceps muscle and the tibial nerve was tightly ligated with 5-0 silk and transected distal to the ligation. Additional 2 to 3 mm of distal nerve stump was removed to prevent reinnervation by the proximal nerve. The overlying muscle and skin was then sutured in 2 separate layers. Sham-injured animals were subjected to all preceding procedures with the exception of ligation and transection. All animals were returned to the housing facility and allowed to survive for 28 d. Mechanical stimuli were applied with 7 filaments, each differing in the bending force delivered (10, 20, 40, 60, 80, 100, and 120 mN), and fitted with a flat tip and fixed diameter of 0.2 mm. The filaments were tested in the order of ascending force, with each filament delivered for 1 second. Withdrawal threshold was determined by sequentially increasing and analyzed with Hill equation was fitted to the function (Origin version 6.0; Microcal Software) relating the percentage of indentations eliciting a withdrawal to the force of indentation.

T1 sequence (P54287 whole entry): as the sequence (P54287 whole entry) above

Ki (CaVα1CaVβ3 interaction)	Kd (CaVβ3)	effect on CaV2.2 currents, acute application ([1]; 50 μM acute, HEK-CaV2.2 cells)	CaV2.2 current density ([1]; 50 μM, pretreated 48 hours, DMSO −98.0±12.5)	mean half-activation potential ([1]; pretreated 48 hours (50 μM per FIG. 4), DMSO 6.7±0.6)	effect on CaV2.2 currents, acute application [2]	steady-state inactivation V0.5, inact ([1]; 50 μM, pretreated 48 hours)	density of CaV2.2 currents ([1]; 50 μM, pretreated 48 hours, depolarizing pulses to 0 mV from holding potential −80 mV, DMSO −74.8±7.0)	mean half-activation potential V0.5, act ([1]; pretreated 48 hours, DMSO 8.7±1.1)	effect on CaV2.2 currents amplitudes ([1]; used acutely or as a long-term treatment, HEK-CaV2.2 cells)	Structure (SMILES)	inhibition of the protein-protein interaction with CaVβ3 Arg-307-Ala (displacement of fluorescently-labeled CaVα1-AID) (CaVβ3 Arg-307-Ala)	paw withdrawal latency (PWL), analgesic effect [3]	response latency to thermal stimulus ([3]; systemic administration, 1 or 10 mg/kg)	effect on behavior (tactile hypersensitivity) ([4]; 1 mg/kg and 0.1 mg/kg, at 1 or 4 hours)	withdrawal threshold to von Frey stimulation ([4]; 10 mg/kg ip)	attenuation of tactile hypersensitivity at 4 h ([4]; 10 mg/kg ip, 4 h after administration)	duration of reversal of mechanical hypersensitivity ([4]; 10 mg/kg, 4 weeks after TNI)
1400 ± 100 nM	3600 ± 1100 nM	did not affect	−28.7±5.0 pA/pF	9.4±1.2 mV	did not affect					COc1ccc(C2=NN(C(=O)c3cccc(C(=O)O)c3)C(c3cn(-c4ccccc4)nc3-c3ccc(C)cc3)C2)cc1 (stereo not shown) [Compound 6, 3-(5-(4-methoxyphenyl)-1′-phenyl-3′-(p-tolyl)-3,4-dihydro-1′H,2H-[3,4′-bipyrazole]-2-carbonyl)benzoic acid]	does not inhibit	lack of analgesic effect	failed to elicit changes	did not alter behavior	62.2±3.1 mN	not at 4 h	limited to 1 h
						−61.6±2.0 mV	−79.2±8.2 pA/pF	8.5±1.4 mV	did not affect	COc1ccc(C2=NN(C(=O)CCC(C)=O)C(c3cn(-c4ccccc4)nc3-c3ccc(C)cc3)C2)cc1 (stereo not shown) [Compound 2, 1-(5-(4-methoxyphenyl)-1′-phenyl-3′-(p-tolyl)-3,4-dihydro-1′H,2H-[3,4′-bipyrazol]-2-yl)pentane-1,4-dione]		lack of analgesic effect			32±2.6 mN		
